Measured values from ChEMBL document CHEMBL1921717, “Benzothiazole-containing hydroxamic acids as histone deacetylase inhibitors and antitumor agents” (Bioorg Med Chem Lett, 2011).
Converted amounts (≈) assume the structure as drawn. The source made the active and inactive calls. The calls are words filed in the database; no cut-off is given here.

Assays:
[1] = tested on: NCI-H460; assay: Cytotoxicity against human NCI-H460 cells; assay type: functional, cell-based
[2] = tested on: PC-3; assay: Cytotoxicity against human PC3 cells; assay type: functional, cell-based
[3] = target: Histone deacetylase 3 (Homo sapiens) (UniProt O15379); assay: Inhibition of HDAC3 in human SW620 cells assessed as increase in histone H3 acetylation at 1 ug/ml after 24 hrs by Western blot analysis; assay type: cell-based; settings: SW-620
[4] = tested on: SW-620; assay: Cytotoxicity against human SW620 cells; assay type: functional, cell-based
[5] = target: Histone deacetylase 4 (Homo sapiens) (UniProt P56524); assay: Inhibition of HDAC4 in human HL60 cells assessed as increase in histone H4 acetylation at 1 ug/ml after 24 hrs by Western blot analysis; assay type: cell-based; settings: HL-60
[6] = tested on: ASPC1; assay: Cytotoxicity against human AsPC1 cells; assay type: functional, cell-based
[7] = target: Histone deacetylase 3 (Homo sapiens) (UniProt O15379); assay: Inhibition of HDAC3 in human HL60 cells assessed as increase in histone H4 acetylation at 1 ug/ml after 24 hrs by Western blot analysis; assay type: cell-based; settings: HL-60
[8] = target: Histone deacetylase 4 (Homo sapiens) (UniProt P56524); assay: Inhibition of HDAC4 in human SW620 cells assessed as increase in histone H3 acetylation at 1 ug/ml after 24 hrs by Western blot analysis; assay type: cell-based; settings: SW-620
[9] = tested on: MCF7; assay: Cytotoxicity against human MCF7 cells; assay type: functional, cell-based

Chain of Histone deacetylase 3 (Homo sapiens) (O15379 whole entry): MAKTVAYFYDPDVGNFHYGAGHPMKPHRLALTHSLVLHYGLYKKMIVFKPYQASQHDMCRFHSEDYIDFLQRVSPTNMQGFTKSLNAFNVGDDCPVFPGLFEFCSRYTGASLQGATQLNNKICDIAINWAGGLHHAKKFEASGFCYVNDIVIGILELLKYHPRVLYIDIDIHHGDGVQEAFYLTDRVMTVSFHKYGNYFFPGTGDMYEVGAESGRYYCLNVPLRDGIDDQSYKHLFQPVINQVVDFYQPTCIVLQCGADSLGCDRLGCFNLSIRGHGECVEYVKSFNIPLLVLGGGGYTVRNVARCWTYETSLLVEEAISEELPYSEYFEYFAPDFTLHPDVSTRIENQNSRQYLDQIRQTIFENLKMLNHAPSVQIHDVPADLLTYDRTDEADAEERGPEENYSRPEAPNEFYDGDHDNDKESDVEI
Chain of Histone deacetylase 4 (Homo sapiens) (P56524 whole entry): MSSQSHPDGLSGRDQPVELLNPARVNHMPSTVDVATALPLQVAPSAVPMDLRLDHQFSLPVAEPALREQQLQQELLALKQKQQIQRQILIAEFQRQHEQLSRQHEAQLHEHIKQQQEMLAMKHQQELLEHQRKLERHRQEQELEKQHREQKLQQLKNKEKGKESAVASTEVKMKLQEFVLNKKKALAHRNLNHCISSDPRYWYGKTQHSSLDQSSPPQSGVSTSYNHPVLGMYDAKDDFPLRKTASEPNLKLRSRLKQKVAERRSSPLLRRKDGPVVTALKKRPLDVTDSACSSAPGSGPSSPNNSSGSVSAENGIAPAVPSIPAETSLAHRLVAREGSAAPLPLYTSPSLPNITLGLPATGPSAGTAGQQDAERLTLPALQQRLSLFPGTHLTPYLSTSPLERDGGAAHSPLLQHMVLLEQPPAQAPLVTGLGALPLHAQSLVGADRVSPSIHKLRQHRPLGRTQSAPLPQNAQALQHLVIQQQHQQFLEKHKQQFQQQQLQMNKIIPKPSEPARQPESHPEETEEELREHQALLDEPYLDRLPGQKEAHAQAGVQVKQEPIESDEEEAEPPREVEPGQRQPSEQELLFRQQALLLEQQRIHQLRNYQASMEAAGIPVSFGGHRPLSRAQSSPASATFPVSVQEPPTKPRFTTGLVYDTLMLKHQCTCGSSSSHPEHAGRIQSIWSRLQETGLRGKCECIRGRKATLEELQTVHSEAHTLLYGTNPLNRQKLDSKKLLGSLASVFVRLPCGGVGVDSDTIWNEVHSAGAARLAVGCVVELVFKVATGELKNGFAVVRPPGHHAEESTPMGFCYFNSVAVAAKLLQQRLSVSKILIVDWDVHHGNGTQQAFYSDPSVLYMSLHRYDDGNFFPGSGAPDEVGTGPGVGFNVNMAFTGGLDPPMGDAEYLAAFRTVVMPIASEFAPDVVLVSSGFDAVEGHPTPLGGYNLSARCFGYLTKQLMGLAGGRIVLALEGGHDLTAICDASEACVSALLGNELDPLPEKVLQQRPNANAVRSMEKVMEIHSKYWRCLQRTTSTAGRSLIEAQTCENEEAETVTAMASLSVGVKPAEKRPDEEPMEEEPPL

Row | inhibition [3] | inhibition [5] | inhibition [7] | inhibition [8] | SMILES | IC50 [1] [µg/mL] | IC50 [2] [µg/mL] | IC50 [4] [µg/mL] | IC50 [6] [µg/mL] | IC50 [9] [µg/mL]
1 | inactive | inactive | inactive | inactive | CCOc1ccc2nc(NC(=O)CCCCC(=O)NO)sc2c1 | 7.96 (≈ 23.6 µM) | 6.69 (≈ 19.8 µM) | 9.26 (≈ 27.4 µM) | 16.7 (≈ 49.5 µM) | 8.72 (≈ 25.8 µM)
2 | inactive | inactive | inactive | inactive | CS(=O)(=O)c1ccc2nc(NC(=O)CCCCCCC(=O)NO)sc2c1 | 6.54 (≈ 16.4 µM) | 5.69 (≈ 14.2 µM) | 5.42 (≈ 13.6 µM) | 13.5 (≈ 33.8 µM) | 15.3 (≈ 38.4 µM)
3 | inactive | inactive | inactive | inactive | O=C(CCCCC(=O)Nc1nc2ccccc2s1)NO | 14.4 (≈ 49.1 µM) | 12.5 (≈ 42.6 µM) | 7.85 (≈ 26.8 µM) | 10.2 (≈ 34.7 µM) | 4.02 (≈ 13.7 µM)
4 | inactive | inactive | inactive | inactive | CCOc1ccc2nc(NC(=O)CCCCCCC(=O)NO)sc2c1 | 6.58 (≈ 18 µM) | 16.9 (≈ 46.2 µM) | 10.4 (≈ 28.5 µM) | 9.88 (≈ 27 µM) | 11.6 (≈ 31.8 µM)
5 | Active | Active | Active | Active | Cc1ccc2nc(NC(=O)CCCCCCC(=O)NO)sc2c1 | 0.84 (≈ 2.5 µM) | 0.53 (≈ 1.58 µM) | 0.56 (≈ 1.67 µM) | 0.54 (≈ 1.61 µM) | 1.6 (≈ 4.77 µM)
6 |  |  |  |  | O=C(CCCCCCC(=O)Nc1ccccc1)NO [VORINOSTAT] |  | 0.94 (≈ 3.56 µM) |  |  | 
7 | inactive | inactive | inactive | inactive | COc1ccc2nc(NC(=O)CCCCC(=O)NO)sc2c1 | 21.4 (≈ 66.2 µM) | 15.3 (≈ 47.3 µM) | 9.07 (≈ 28 µM) | 23.9 (≈ 74 µM) | 5.91 (≈ 18.3 µM)
8 | inactive | inactive | inactive | inactive | O=C(CCCCC(=O)Nc1nc2ccc([N+](=O)[O-])cc2s1)NO | > 30 | > 30 | > 30 | > 30 | > 30
9 | inactive | inactive | inactive | inactive | CS(=O)(=O)c1ccc2nc(NC(=O)CCCCC(=O)NO)sc2c1 | > 30 | > 30 | > 30 | > 30 | > 30
10 | inactive | inactive | inactive | inactive | Cc1ccc2nc(NC(=O)CCCCC(=O)NO)sc2c1 | 11 (≈ 35.7 µM) | 6.23 (≈ 20.3 µM) | 4.69 (≈ 15.3 µM) | 13.3 (≈ 43.4 µM) | 4.27 (≈ 13.9 µM)
11 | Active | Active | Active | Active | O=C(CCCCCCC(=O)Nc1nc2ccccc2s1)NO | 5.71 (≈ 17.8 µM) | 5.44 (≈ 16.9 µM) | 4.01 (≈ 12.5 µM) | 5.69 (≈ 17.7 µM) | 6.61 (≈ 20.6 µM)
12 | Active | Active | Active | Active | COc1ccc2nc(NC(=O)CCCCCCC(=O)NO)sc2c1 | 1.25 (≈ 3.56 µM) | 1.56 (≈ 4.44 µM) | 0.96 (≈ 2.73 µM) | 0.79 (≈ 2.25 µM) | 1.85 (≈ 5.26 µM)
13 | Active | Active | Active | Active | O=C(CCCCCCC(=O)Nc1nc2ccc([N+](=O)[O-])cc2s1)NO | 1.9 (≈ 5.19 µM) | 1.28 (≈ 3.49 µM) | 0.29 (≈ 0.791 µM) | 1.65 (≈ 4.5 µM) | 3.83 (≈ 10.5 µM)
